Results from patent publication US20240229097A1, “SYSTEM, METHOD, DEVICE AND MANUFACTURING METHOD THEREOF FOR DETECTING CELLULAR MECHANICAL FORCE” (Ruixin (Fuzhou) Technology Co., Ltd., priority 2021, published 2024).

How the values were obtained:
Assay type in all cases: cell-based
[1] = tested on: non-small cell lung cancer cells A549; assay: Cell viability reflected by cellular mechanical force (micropillar light reflection device), A549 cells treated with 5FU
From the text: This embodiment specifically provides using the cellular mechanical force information obtained from any of the system for detecting cellular mechanical force described in the tenth to twelfth embodiments or the cellular mechanical force detection method described in the fourteenth embodiment to monitor cell viability.
(§1) Specifically, this embodiment cultures non-small cell lung cancer cells A549 on multiple device for detecting cellular mechanical force, treats them with different doses of the cell proliferation inhibitor 5-fluorouracil (5-FU), and monitors cellular mechanical forces at different time points using the system for detecting cellular mechanical force or the method described in the tenth to twelfth embodiments or the fourteenth embodiment. Cell proliferation and cytotoxicity are monitored at different time points using the CCK-8 assay kit, with cell viability measured by the MTT assay serving as a control, generating the data for FIGS. 16,b and c.

[2] = tested on: non-small cell lung cancer cells A549; assay: MTT assay of cell viability of A549 cells treated with 5FU
From the text: as §1

[3] = tested on: breast cancer cells MCF-7 multicellular aggregates; assay: 5-Fu drug sensitivity test on tumor cell multicellular aggregates on the cellular mechanical force detection device; details: MCF-7 aggregates, 200 μM 5-Fu, cultured for one day, FIG. 18
Description: More specifically, this embodiment provides a method for culturing a tumor cell multicellular aggregate on the device for detecting cellular mechanical force for drug sensitivity test, including the steps:
S1, Generation of tumor cell multicellular aggregates: FN 50 μg/mL is applied to the top of the micropillar of the device for detecting cellular mechanical force and sterilized with UV for 30 minutes; breast cancer cells MCF-7 (approximately 1×10^5 to 9×10^5 cells) are seeded on the top surface of the micropillars (number of micropillars is not limited) of the device for detecting cellular mechanical force, which is then immersed in 3dGRO™ Spheroid Medium (S3077) for more than 3 days to induce the formation of tumor cell multicellular aggregates.
S2, Applying the generated tumor cell multicellular aggregates to a 5-Fu drug sensitivity test: 200 μM of 5-Fu is added to the tumor cell multicellular aggregates and cultured for one day; in the test, before the addition of 5-Fu and one day of culture after the addition of 5-Fu on the device for detecting cellular mechanical force (with tumor cell multicellular aggregates, including the culture medium), light reflection signals are captured by the light signal detection device (CCD sensor) and cellular mechanical force distribution images are obtained using the light signal analysis device (ImageJ), as shown in FIG. 18. […]

[4] = different doses of 5FU, FIGS. 16,b and c

O=c1[nH]cc(F)c(=O)[nH]1 [5FU, 5-fluorouracil]
time at which a significant decrease trend of cellular mechanical force is observed ([1]; 0.5 μM treatment dose): 6 h | time at which a significant decrease trend of cellular mechanical force is observed ([1]; 1 μM treatment dose): 3 h | cellular viability reflected by mechanical force compared to the control group (DMSO) ([1]; different doses of 5FU for 24 hours, relative to MTT assay, FIG. 16,b): greater reduction | cell viability reflected by cellular mechanical forces [1, 4]: dose-dependent decline | cell viability measured by the conventional MTT assay [2, 4]: dose-dependent decline | change in cell viability by MTT assay ([2]; within 12 hours of 5FU treatment, FIG. 16,c): no significant change | cell viability of tumor cell multicellular aggregates [3]: reduced | reflection signals of tumor cell multicellular aggregates [3]: noticeably weaken
